pEC50: −log10 of the molar value.
Key:
Assay type in all cases: functional, cell-based
A-375 = assay: Cytotoxicity against human A375 cells after 4 days by MTT assay; conditions: A-375, 96 h
Raji = assay: Cytotoxicity against human Raji cells after 4 days by MTT assay; conditions: 96 h
[1] = Cytotoxicity against human SKBR cells after 4 days by MTT assay; conditions: 96 h
MCF7 = assay: Cytotoxicity against human MCF7 cells after 4 days by MTT assay; conditions: MCF7, 96 h
MDA-MB-231 = assay: Cytotoxicity against human MDA-MB-231 cells after 4 days by MTT assay; conditions: MDA-MB-231, 96 h
T47D = assay: Cytotoxicity against human T47D cells after 4 days by MTT assay; conditions: 96 h

Row | SMILES | pEC50 (A-375) | pEC50 (Raji) | pEC50 [1] | pEC50 (MCF7) | pEC50 (MDA-MB-231) | pEC50 (T47D)
1 | C/C1=C\CC(=O)/C=C/C=C\c2csc(n2)[C@@H](C)NC(=O)C[C@@](S)([C@@H](C)C(=O)O)CC1 | < 5.00 | < 5.00 | < 5.00 | < 5.00 | < 5.00 | < 5.00
2 | C/C1=C\CC(=O)/C=C/C=C\c2csc(n2)[C@@H](C)NC(=O)C[C@@]2(CC1)SC(=O)[C@@H]2C | < 5.00 | < 5.00 | 5.13 | 5.07 | 5.71 | < 5.00
3 | C/C1=C\CC(=O)/C=C/C=C\c2csc(n2)[C@@H](C)NC(=O)C[C@@]2(CC1)SSC(=O)[C@@H]2C | < 5.00 | 7.31 | < 5.00 | < 5.00 | < 5.00 | < 5.00
4 | C/C1=C\CC(=O)/C=C/C=C\c2csc(n2)[C@@H](C)NC(=O)C[C@]2(CC1)[C@@H](C)C(=O)S[S+]2[O-] (stereo not given in full) | 7.90 | 8.09 | 6.60 | 6.56 | 7.15 | 6.71
5 | C/C1=C\[C@@H](O)C(=O)/C=C/C=C\c2csc(n2)[C@@H](C)NC(=O)C[C@@]2(CC1)[S+]([O-])SC(=O)[C@]2(C)O (stereo not given in full) [LEINAMYCIN] | 8.33 | 8.20 | 7.28 | 7.37 | 8.05 | 7.82

Reference: ChEMBL document CHEMBL3621171, “Synthesis and evaluation of 8,4'-dideshydroxy-leinamycin revealing new insights into the structure-activity relationship of the anticancer natural product leinamycin” (Bioorg Med Chem Lett, 2015)
